Source: patent US11708366B2, “Heteroaryl substituted spiropiperidinyl derivatives and pharmaceutical uses thereof” (Novartis AG, priority 2020, dated 2023)

Key:
LTC4S [1] = biological target: T1, LTC4S (Homo sapiens (Human), UniProt Q16873); assay: Human LTC4S enzymatic assay (HTRF detection of LTC4-Me); assay type: biochemical; conditions: 0.75 nM enzyme, 400 μM GSH, 5 μM LTA4-Me, 15 min pre-incubation; read-out: human LTC4S IC50 (enzymatic assay)
Description: A. Human LTC4S Enzymatic Assay:
LTC4 synthase catalyzes the conversion of Leukotriene A4 (LTA4) to Leukotriene C4 (LTC4) in the presence of reduced glutathione (GSH) as a co-substrate. For compound testing, compounds are delivered as 10 mM stock solutions in 90% DMSO in matrix tubes. From this, a 1:3 dilution dose response series is prepared with a starting concentration of 30 μM to 0.1 nM. For the enzymatic assay 97.5 nL of compound/DMSO solution is transferred to each well and 5 μL enzyme solution (assay buffer: 50 mM bis-tris propane pH 7.3, 250 mM NaCl, 10 mM MgCl2, 0.001% MGN3) is added to the wells. […] The enzyme compound mixture is incubated at room temperature for 15 minutes prior to the addition of 5 μL substrate solution. […] A final substrate concentration of 400 μM GSH and 5 μM LTA4-Me is chosen.
The LTA4-Me is obtained commercially in 2% triethylamine/hexane solvent. As this solvent is incompatible with the HTRF assay it has to be exchanged with DMSO according to following procedure: add 50 μL of 100% DMSO to 50 μL LTA4-Me (3 mM) in a 2 mL Eppendorf tube and mix gently by inverting the tube. The triethylamine/hexane is evaporated under a constant argon flux at room temperature. The DMSO-LTA4-Me (3 mM) is aliquoted and stored at −20° C. for not longer than 4 weeks, as it is not stable in DMSO due to its oxidizing properties.
Upon addition of the substrate, the plate is immediately placed on a shaker for 5 min at room temperature. Immediately after the 5 min incubation 5 μL of H2O2 solution is added to all wells to stop the reaction. The plate contents are mixed before the addition of detection reagents. […] For the detection of the product of the enzymatic reaction LTC4-Me, the Cisbio LTC4-HTRF kit is used as the assay is compatible with the detection of LTC4-Me. 5 μL of diluted LTC4-d2 conjugate (according to manufacturer's protocol) are added to all wells of the assay plate and the contents gently mixed and incubated for 5 minutes at room temperature. […] The percent inhibition for each point of an inhibition curve is calculated after data interpolation using the LTC4-Me standard curve, to convert the HTRF signal to the amount of LTC4-Me produced within the LTC4S catalyzed reaction on each plate. The data is analyzed using parametric curve fitting to determine IC50 values of LTC4S inhibitors.

LTC4S [2] = biological target: T1, LTC4S; assay: Human whole blood HTRF assay (LTC4 release after calcium ionophore A23187); assay type: cell-based; conditions: calcium ionophore A23187 stimulation, LTC4 by HTRF
[3] = human whole blood diluted 1:3, 4 h incubation, read-out: human whole blood HTRF IC50

O=C1CCCC2(CCN(c3cc(N4CC(F)(F)C(F)(F)C4)ncn3)CC2)N1c1ccc(Cl)c(F)c1 [Example 44, 1-(4-chloro-3-fluorophenyl)-9-(6-(3,3,4,4-tetrafluoropyrrolidin-1-yl)pyrimidin-4-yl)-1,9-diazaspiro[5.5]undecan-2-one]
IC50 (LTC4S [1]): 13 nM

Cc1nc(N2CCC3(CCCC(=O)N3c3ccc(F)c(F)c3)CC2)cc(-n2cccn2)n1 [Example 48, 1-(3,4-difluorophenyl)-9-(2-methyl-6-(1H-pyrazol-1-yl)pyrimidin-4-yl)-1,9-diazaspiro[5.5]undecan-2-one]
IC50 (LTC4S [2]; [3]): 45 nM

O=C1CCCC2(CCN(c3ncnc(N4CCC(O)(C(F)(F)F)CC4)n3)CC2)N1c1ccc(F)c(F)c1 [Example 40, 1-(3,4-difluorophenyl)-9-(4-(4-hydroxy-4-(trifluoromethyl)piperidin-1-yl)-1,3,5-triazin-2-yl)-1,9-diazaspiro[5.5]undecan-2-one]
IC50 (LTC4S [2]; [3]): 4 nM

Nc1nc(N2CCC3(CCCC(=O)N3c3ccc(F)c(F)c3)CC2)cc(C(F)(F)C(F)F)n1 [Example 78, 9-(2-amino-6-(1,1,2,2-tetrafluoroethyl)pyrimidin-4-yl)-1-(3,4-difluorophenyl)-1,9-diazaspiro[5.5]undecan-2-one]
IC50 (LTC4S [2]; [3]): 24 nM

Nc1nc(OC2CC(F)(F)C2)cc(N2CCC3(CCCC(=O)N3c3ccc(F)c(F)c3)CC2)n1 [Example 90, 9-(2-amino-6-(3,3-difluorocyclobutoxy)pyrimidin-4-yl)-1-(3,4-difluorophenyl)-1,9-diazaspiro[5.5]undecan-2-one]
IC50 (LTC4S [2]; [3]): 4 nM

O=C1OCCC2(CCN(c3cc(-n4cc(C(F)(F)F)cn4)nc(CO)n3)CC2)N1c1ccc(F)c(F)c1 [Example 114, 1-(3,4-difluorophenyl)-9-(2-(hydroxymethyl)-6-(4-(trifluoromethyl)-1H-pyrazol-1-yl)pyrimidin-4-yl)-3-oxa-1,9-diazaspiro[5.5]undecan-2-one]
IC50 (LTC4S [2]; [3]): 7 nM

Nc1nc(O[C@H]2COC[C@H]2F)cc(N2CCC3(CCCC(=O)N3c3ccc(F)c(F)c3)CC2)n1 (racemic) [Example 105, rac-9-(2-amino-6-(((3S,4R)-4-fluorotetrahydrofuran-3-yl)oxy)pyrimidin-4-yl)-1-(3,4-difluorophenyl)-1,9-diazaspiro[5.5]undecan-2-one]
IC50 (LTC4S [2]; [3]): 6 nM

O=C1CCCC2(CCN(c3cc(-n4cnc(C(F)(F)F)c4)ncn3)CC2)N1c1ccc(F)c(F)c1 [Example 58, 1-(3,4-difluorophenyl)-9-(6-(4-(trifluoromethyl)-1H-imidazol-1-yl)pyrimidin-4-yl)-1,9-diazaspiro[5.5]undecan-2-one]
IC50 (LTC4S [2]; [3]): 560 nM

(S)-1-(3,4-difluorophenyl)-9-(2-(hydroxymethyl)-6-((1,1,1-trifluoropropan-2-yl)oxy)pyrimidin-4-yl)-1,9-diazaspiro[5.5]undecan-2-one or (R)-1-(3,4-difluorophenyl)-9-(2-(hydroxymethyl)-6-((1,1,1-trifluoropropan-2-yl)oxy)pyrimidin-4-yl)-1,9-diazaspiro[5.5]undecan-2-one [Example 110a]
IC50 (LTC4S [2]; [3]): 3 nM

O=C1CCCC2(CCN(c3cc(O[C@H]4CCOC4)nc(Cl)n3)CC2)N1c1ccc(F)c(F)c1 [Example 71, (S)-9-(2-chloro-6-((tetrahydrofuran-3-yl)oxy)pyrimidin-4-yl)-1-(3,4-difluorophenyl)-1,9-diazaspiro[5.5]undecan-2-one]
IC50 (LTC4S [2]; [3]): 580 nM

Nc1nc(C2=CCC(F)(F)CC2)cc(N2CCC3(CCCC(=O)N3c3ccc(F)c(F)c3)CC2)n1 [Example 74, 9-(2-amino-6-(4,4-difluorocyclohex-1-en-1-yl)pyrimidin-4-yl)-1-(3,4-difluorophenyl)-1,9-diazaspiro[5.5]undecan-2-one]
IC50 (LTC4S [2]; [3]): 4 nM

NC(=O)c1nc(N2CCC3(CCCC(=O)N3c3ccc(F)c(F)c3)CC2)cc(-n2cc(C(F)(F)F)cn2)n1 [Example 68]
IC50 (LTC4S [2]; [3]): 120 nM

O=C1CCCC2(CCN(c3cc(Oc4cccc(Cl)c4)cc[n+]3[O-])CC2)N1c1ccc(F)c(F)c1 [Example 34, 4-(3-chlorophenoxy)-2-(1-(3,4-difluorophenyl)-2-oxo-1,9-diazaspiro[5.5]undecan-9-yl)pyridine 1-oxide]
IC50 (LTC4S [2]; [3]): 2 nM

Cn1nc(OC2CCOCC2)cc(N2CCC3(CCCC(=O)N3c3ccc(F)c(F)c3)CC2)c1=O [Example 17, 1-(3,4-difluorophenyl)-9-(2-methyl-3-oxo-6-((tetrahydro-2H-pyran-4-yl)oxy)-2,3-dihydropyridazin-4-yl)-1,9-diazaspiro[5.5]undecan-2-one]
IC50 (LTC4S [2]; human whole blood HTRF IC50, human whole blood diluted 1:3, 4 h incubation): 9 nM

CC1(Oc2cc(N3CCC4(CCCC(=O)N4c4ccc(F)c(F)c4)CC3)nc(N)n2)CCOC1 (racemic) [Example 104, rac-9-(2-amino-6-((3-methyltetrahydrofuran-3-yl)oxy)pyrimidin-4-yl)-1-(3,4-difluorophenyl)-1,9-diazaspiro[5.5]undecan-2-one]
IC50 (LTC4S [2]; [3]): 5 nM

O=C1CCCC2(CCN(c3cnnc(N4CCC(O)(C(F)(F)F)CC4)c3)CC2)N1c1ccc(F)c(F)c1 [Example 42, 1-(3,4-difluorophenyl)-9-(6-(4-hydroxy-4-(trifluoromethyl)piperidin-1-yl)pyridazin-4-yl)-1,9-diazaspiro[5.5]undecan-2-one]
IC50 (LTC4S [2]; [3]): 410 nM

O=C1CCCC2(CCN(c3cc(-n4cc(C(F)(F)F)cn4)nc(CO)n3)CC2)N1c1ccc(F)c(F)c1 [Example 66, 1-(3,4-difluorophenyl)-9-(2-(hydroxymethyl)-6-(4-(trifluoromethyl)-1H-pyrazol-1-yl)pyrimidin-4-yl)1,9-diazaspiro[5.5]undecane-2-one]
IC50 (LTC4S [2]; [3]): 1 nM

O=C1CCCC2(CCN(c3cc(N4CCCOCC4)ncn3)CC2)N1c1ccc(F)c(F)c1 [Example 45, 9-(6-(1,4-oxazepan-4-yl)pyrimidin-4-yl)-1-(3,4-difluorophenyl)-1,9-diazaspiro[5.5]undecan-2-one]
IC50 (LTC4S [2]; [3]): 620 nM

Nc1nc(N2CCC3(CCCC(=O)N3c3ccc(F)c(F)c3)CC2)cc(C(F)(F)C(F)(F)F)n1 [Example 77, 9-(2-amino-6-(perfluoroethyl)pyrimidin-4-yl)-1-(3,4-difluorophenyl)-1,9-diazaspiro[5.5]undecane-2-one]
IC50 (LTC4S [2]; [3]): 31 nM

O=C1CCCC2(CCN(c3cc(OCC(F)(F)F)nc(Cl)n3)CC2)N1c1ccc(F)c(F)c1 [Example 88, 9-(2-chloro-6-(2,2,2-trifluoroethoxy)pyrimidin-4-yl)-1-(3,4-difluorophenyl)-1,9-diazaspiro[5.5]undecan-2-one]
IC50 (LTC4S [2]; [3]): 1370 nM

CC(C)Oc1cc(N2CCC3(CCCC(=O)N3c3ccc(F)c(F)c3)CC2)nc(N)n1 [Example 93, 9-(2-amino-6-isopropoxypyrirnidin-4-yl)-1-(3,4-difluorophenyl)-1,9-diazaspiro[5.5]undecan-2-one]
IC50 (LTC4S [2]; [3]): 10 nM

Nc1nc(O[C@@H]2COC[C@H]2F)cc(N2CCC3(CCCC(=O)N3c3ccc(F)c(F)c3)CC2)n1 (racemic) [Example 102, rac-9-(2-amino-6-(((3R,4R)-4-fluorotetrahydrofuran-3-yl)oxy)pyrimidin-4-yl)-1-(3,4-difluorophenyl)-1,9-diazaspiro[5.5]undecan-2-one]
IC50 (LTC4S [2]; [3]): 9 nM

O=C1CCCC2(CCN(c3cc(OC4COC4)nc(C(F)(F)F)n3)CC2)N1c1ccc(F)c(F)c1 [Example 61, 1-(3,4-difluorophenyl)-9-(6-(oxetan-3-yloxy)-2-(trifluoromethyl)pyrimidin-4-yl)-1,9-diazaspiro[5.5]undecan-2-one]
IC50 (LTC4S [2]; [3]): 29 nM

Nc1nc(N2CCC3(CCCC(=O)N3c3ccc(F)c(F)c3)CC2)c(F)c(-n2cccn2)n1 [Example 59, 9-(2-amino-5-fluoro-6-(1H-pyrazol-1-yl)primidin-4-yl)-1-(3,4-difluorophenyl)-1,9-diazaspiro[5.5]undecan-2-one]
IC50 (LTC4S [2]; [3]): 640 nM

Nc1nc(-c2ccc(F)cc2)cc(N2CCC3(CCCC(=O)N3c3ccc(F)c(F)c3)CC2)n1 [Example 75]
IC50 (LTC4S [2]; [3]): 4 nM

O=C1CCCC2(CCN(c3cc(OC4CCOCC4)nc(CO)n3)CC2)N1c1ccc(F)c(F)c1 [Example 106, 1-(3,4-difluorophenyl)-9-(2-(hydroxymethyl)-6-((tetrahydro-2H-pyran-4-yl)oxy)pyrimidin-4-yl)-1,9-diazaspiro[5.5]undecan-2-one]
IC50 (LTC4S [2]; [3]): 69 nM
